Where two headings read alike, the source gives them in different places.
Assays:
ZR-75-1 xenograft = ZR-75-1 xenograft efficacy in NOD SCID mice; format: in vivo, mouse
Experimental: Control animals were treated with vehicle (1% HEC/ 25 mM phosphate buffer, pH = 2) using the same schedule of dosing. The red bar just above the X-axis illustrates the duration of the treatment period. Tumor volume measurements were taken routinely during the course of the study and are plotted as mean +/- SEM versus days following tumor cell implantation. (B) Body weights were recorded routinely during the course of the study and are plotted as mean % change (+/– SEM) relative to the mean body weight recorded on the day just prior to the first day of dosing (baseline day = 27). (C) The waterfall plots indicate the relative tumor volumes for individual animals which were determined at the end of the dosing period (study day 55). […] Growth inhibition is observed in those instances where the calculated changes in %DT/C are less than 100% whereby greater inhibition results in smaller %DT/C values. Change in %DT/C values that are less than zero indicate regressions whereby the tumor volumes on day 55 are smaller than the baseline tumor volume measured on the day prior to the initiation of dosing (baseline day = day 27). […] The tumor volumes measured on day 27 served as the baseline volumes for the calculation of %DT/C. […] Potential CDK9 inhibition was assessed by measuring the expression of MCL1 or phosphorylation of serine 2 on the C-terminal domain repeat on RNA polymerase II (pCTD). […]

CDK4/cyclin D1 complexes = biological target: CDK4/cyclin D1 complexes; parameters: method as in PMID 24919854; conditions: cell-free; read-out: Ki^ATP CDK4/cyclin D1; cited from earlier work
MCF7 cells = assay: BrdU incorporation ELISA in MCF7; format: cell-based; conditions: Homo sapiens, 3 DT
Experimental: (§1) Relative IC50/EC50 values were determined by curve fitting to a four parameter logistic equation: Y = bottom + ((top-bottom)/ (1+exp(HillSlope*(X – LnIC50)), where X is the natural log of dose/concentration, Y is response, decreasing as X increases, top and bottom are plateaus in the same units as Y, lnIC50 is the natural log of potency, in the same log units as X, and HillSlope measures the steepness of the curve. Data were plotted using GraphPad Prism.
After treatment, an ELISA for BrdU detection was performed (Roche, Cat. No. 11 669 915 001) following the vendor’s manual. Envision® (PerKinElmer) was used to measure the light emission of the samples and raw data were processed with Microsoft Excel and relative EC50 values were determined as described above. For normalization, the mean value obtained from cells treated with 2 µM […] doxorubicin (Sigma #D1515) was set as the minimum, and that obtained from treatment with the vehicle (0.2% DMSO) was set as the maximum.

H3K9me3 = assay: Hypermethylation of histone H3 at lysine 9 (H3K9me3), EFM-19; format: cell-based, human; conditions: 2 DT, n = 1, read-out: EC50 H3K9me3 levels
Experimental: as §1
BioResearch) where indicated; the dates of acquisition and in an Acumen Explorer Ex3 (TTP Labtech), raw data testing are listed in parentheses: ZR-75-1; T-47D; MDA- were analyzed with Cellista software and then further MB-468; HCC70; BT-549; BT-20; MDA-MB-231; MDA- normalized in Excel against the values obtained for cells MB-175-VII, HCC-1937; MDA-MB-415. treated with 2 µM BEZ235, or vehicle (0.2% v/v DMSO); data were graphed using GraphPad Prism®. Images were SA-β-galactosidase immunocytochemical labeling taken by fluorescent microscopy using a Leica DMiL. […]
SA-β-gal Cell samples were lysed after treatment with expression was determined using the Senescence Cells 100 µL lysis buffer and transferred to a 96-well plate. […]
(BSA) (Invitrogen #15260-037) for 1 hour at 25°C. EdU Samples were analyzed by LC─MS/MS under the detection was performed using the Click-iT High Content conditions described below. […]

SMILES: CCN1CCN(Cc2ccc(Nc3ncc(F)c(-c4cc(F)c5nc(C)n(C(C)C)c5c4)n3)nc2)CC1 [abemaciclib, Abemaciclib]
- tumor volume (ZR-75-1 xenograft; 75 mg/kg PO QDx28, NOD SCID mice, ZR-75-1 xenograft): measured reduction in tumor volume (regression)
- anti-tumor activity (ZR-75-1 xenograft; 50 or 75 mg/kg PO QDx28, single agent): Dose-dependent anti-tumor activity
- Ki (CDK4/cyclin D1 complexes): 0.6 nM
- EC50 (MCF7 cells): 178 nM
- EC50 (H3K9me3; EFM-19): 23 nM
- EC50 (H3K9me3; Homo sapiens, EFM-19, EFM-19): 23.2 nM

Reference: PMC5642494 (Oncotarget, 2017)
